In patent US20260125360A1, “HERBICIDAL IMIDAZOLE COMPOUNDS” (SYNGENTA CROP PROTECTION AG, priority 2022, published 2026):

Experiments:
Type in all cases: in vivo
Settings in all cases: 250 g/ha, evaluated after 13 days
[1] = tested on: Echinochloa crus-galli (ECHCG); assay: Pre-emergence herbicide glasshouse test
Summary of the method: (§1)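 Species sown in standard soil and sprayed 1 day (pre-emergence) or 8 days (post-emergence) after sowing, at 250 g/ha unless noted, in acetone/water (50:50) with 0.5% Tween 20. Glasshouse at 24/16 °C day/night, 14 h light, 65% humidity. Percentage damage scored after 13 days on a 1–5 scale (5=81–100%, 1=0–20%).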

[2] = tested on: Ipomoea hederacea (IPOHE); assay: Pre-emergence herbicide glasshouse test
Summary of the method: as §1

[3] = tested on: Amaranthus palmeri (AMAPA); assay: Pre-emergence herbicide glasshouse test
Summary of the method: as §1

[4] = tested on: Amaranthus retoflexus (AMARE); assay: Pre-emergence herbicide glasshouse test
Summary of the method: as §1

[5] = tested on: Echinochloa crus-galli (ECHCG); assay: Post-emergence herbicide glasshouse test
Summary of the method: as §1

[6] = tested on: Ipomoea hederacea (IPOHE); assay: Post-emergence herbicide glasshouse test
Summary of the method: as §1

[7] = tested on: Amaranthus palmeri (AMAPA); assay: Post-emergence herbicide glasshouse test
Summary of the method: as §1

[8] = tested on: Amaranthus retoflexus (AMARE); assay: Post-emergence herbicide glasshouse test
Summary of the method: as §1

Row | Structure (SMILES) | percentage damage caused to the plant, ECHCG (five-point scale) [1] | percentage damage caused to the plant, IPOHE (five-point scale) [2] | percentage damage caused to the plant, AMAPA (five-point scale) [3] | percentage damage caused to the plant, AMARE (five-point scale) [4] | percentage damage caused to the plant, ECHCG (five-point scale) [5] | percentage damage caused to the plant, IPOHE (five-point scale) [6] | percentage damage caused to the plant, AMAPA (five-point scale) [7] | percentage damage caused to the plant, AMARE (five-point scale) [8]
1 | Cn1cc(Cn2cc(C(F)(F)F)nc2-c2ccc(C(F)(F)F)cc2)c(C(F)(F)F)n1 [Compound 1.014] | 1 (1=0-20%) | 1 (1=0-20%) | 1 (1=0-20%) | 1 (1=0-20%) | 1 (1=0-20%) | 1 (1=0-20%) | 1 (1=0-20%) | 1 (1=0-20%)
2 | Cc1noc(Cn2cc(C(F)(F)F)nc2-c2ccc(F)c(F)c2)n1 [Compound 1.169] | 4 (4=61-80%) | 5 (5=81-100%) | 5 (5=81-100%) | 5 (5=81-100%) | 3 (3=41-60%) | 3 (3=41-60%) | 5 (5=81-100%) | 5 (5=81-100%)
3 | Cc1cc(Cn2cc(C(F)(F)F)nc2-c2ccc(C(F)(F)F)cc2)no1 [Compound 1.013] | 5 (5=81-100%) | 5 (5=81-100%) | 5 (5=81-100%) | 5 (5=81-100%) | 4 (4=61-80%) | 4 (4=61-80%) | 5 (5=81-100%) | 4 (4=61-80%)
4 | Cn1ccc(Cn2cc(C(F)(F)F)nc2-c2ccc(S(C)(=O)=O)cc2)n1 [Compound 1.171] | 1 (1=0-20%) | 3 (3=41-60%) | 4 (4=61-80%) | 4 (4=61-80%) | 1 (1=0-20%) | 2 (2=21-40%) | 1 (1=0-20%) | 1 (1=0-20%)
5 | Cc1nc(Cn2cc(C(F)(F)F)nc2-c2ccc(S(C)(=O)=O)cc2)no1 [Compound 1.159] | 1 (1=0-20%) | 5 (5=81-100%) | 5 (5=81-100%) | 5 (5=81-100%) | 2 (2=21-40%) | 5 (5=81-100%) | 5 (5=81-100%) | 5 (5=81-100%)
6 | Cn1nnc(Cn2cc(C(F)(F)F)nc2-c2ccc(Cl)nc2)n1 [Compound 1.109] | 5 (5=81-100%) | 5 (5=81-100%) | 5 (5=81-100%) | 5 (5=81-100%) | 1 (1=0-20%) | 5 (5=81-100%) | 5 (5=81-100%) | 5 (5=81-100%)
7 | Cc1cc(Cn2cc(C(F)(F)F)nc2-c2ccc(S(C)(=O)=O)cc2)ns1 [Compound 1.161] | 5 (5=81-100%) | 5 (5=81-100%) | 5 (5=81-100%) | 5 (5=81-100%) | 5 (5=81-100%) | 5 (5=81-100%) | 5 (5=81-100%) | 5 (5=81-100%)
8 | Cc1cc(Cn2cc(C(F)(F)F)nc2-c2cnc(Cl)c(F)c2)ns1 [Compound 1.027] | 3 (3=41-60%) | 4 (4=61-80%) | 5 (5=81-100%) | 5 (5=81-100%) | 4 (4=61-80%) | 4 (4=61-80%) | 4 (4=61-80%) | 4 (4=61-80%)
